This experiment concerns TEAD-dependent transcription. Nature of the experiment: TEAD-dependent transcription cell-based luciferase reporter assay (MSTO-211H+12XGTIIC). More on the design: species or system human. Particulars: MSTO-211H+12XGTIIC cell line, 24 hours compound incubation, luminescence normalized to cell viability fluorescence signal, read-out: MSTO-211H GMean IC50 (uM) Cell Assay Reporter Cell Variant: TEAD. The text has this:
Determine Inhibitor Activity Against TEAD-Dependent Transcription in a Cell-Based Reporter Assay
The human mesothelioma cell line MSTO-211H was stably transfected with a pGL4.21 plasmid containing a synthetic promoter with 12 copies of the GTIIC TEAD response element that drives the expression of a luciferase reporter gene i using Lipofectamine transfection reagent (Thermo Fisher). Transfected cells were selected using puromycin and single cell clones expressing this construct (referred to as MSTO-211H+12XGTIIC) were generated by limiting dilution. MSTO-211H cells was characterized by genetic alterations in key components of the Hippo pathway^2, resulting in up-regulation of YAP/TEAD-mediated transcription. […] To evaluate TEAD inhibitors, the MSTO-211H+12XGTIIC cell line was seeded in a 96-well plate in 50 μL of culture media at 1×10^4 cells per well and incubated at 37° C. overnight. Serial dilutions of compounds (in total volume of 50 μL of culture media) were added to the cells and incubated at 37° C. for 24 hours. Each plate included cells treated with DMSO as high controls and cells treated with 20 μM of the reference compound K-975 (a known TEAD inhibitor)^3 as low controls. Cell viability was assayed by the addition of 25 μL of CellTiter-Fluor reagent (Promega) followed by a 30-minute incubation at 37° C. and quantification of the fluorescence signal (Ex400/Em505). Subsequently, luciferase expression was assayed by the addition of 25 μL of ONE-Glo reagent (Promega) followed by a 10-minute incubation at room temperature and quantification of the luminescence signal. The luminescence signal was normalized to the fluorescence signal to correct for any loss in cell viability over the 24-hour compound incubation period. The percentage of inhibition of normalized luminescence signal, indicative of compound-mediated inhibition of TEAD-dependent transcription, at individual compound concentrations relative to high and low controls was calculated. The data were analyzed by using nonlinear regression to generate IC50 values for individual compounds.
On the technique in general: Reporter assays use an easily measured gene product as a stand-in for the process of interest.

As usually defined, the IC50 is the concentration at which inhibition is half-maximal.

Structures are written as SMILES. Like-named read-outs stand apart in the source and are kept apart here. Where only a bound is given, the exact number is not on record here.

For `CS(=O)(=O)c1nc(C(=O)N2CCc3ccc(Nc4ccc(C(F)(F)F)c(F)c4)cc3C2)c[nH]1` [O-0018, (7-((3-fluoro-4-(trifluoromethyl)phenyl)amino)-3,4-dihydroisoquinolin-2(1H)-yl)(2-(methylsulfonyl)-1H-imidazol-4-yl)methanone], the 50% inhibitory concentration (IC50) was 10 to 100 µM.
Regarding `CS(=O)(=O)c1nc(C(=O)N2CCc3c(cccc3NC3CCC(F)(F)CC3)C2)c[nH]1` [O-0124, (5-((4,4-difluorocyclohexyl)amino)-3,4-dihydroisoquinolin-2(1H)-yl)(2-(methylsulfonyl)-1H-imidazol-4-yl)methanone], the IC50 (Homo sapiens, MSTO-211H, 24 h) is greater than 100 µM.
On the same count and under the same terms, to `CS(=O)(=O)c1nc(C(=O)N2CCc3c(cccc3Oc3ccc(C(F)(F)F)c(F)c3)C2)c[nH]1` [O-0114, (5-(3-fluoro-4-(trifluoromethyl)phenoxy)-3,4-dihydroisoquinolin-2(1H)-yl)(2-(methylsulfonyl)-1H-imidazol-4-yl)methanone] belongs 0.001 to 10 µM; to `CCS(=O)(=O)c1nc(C(=O)N2CCc3c(ncnc3Oc3ccc(C(F)(F)F)c(F)c3)C2)c[nH]1` [O-0113, (2-(ethylsulfonyl)-1H-imidazol-4-yl)(4-(3-fluoro-4-(trifluoromethyl)phenoxy)-5,8-dihydropyrido[3,4-d]pyrimidin-7(6H)-yl)methanone], 0.001 to 10 µM.
Same read-out and setting: for `CS(=O)(=O)c1nc(C(=O)N2CCc3c(cccc3Nc3ccc(C(F)(F)F)cn3)C2)c[nH]1` [O-0003, (2-(methylsulfonyl)-1H-imidazol-4-yl)(5-((5-(trifluoromethyl)pyridin-2-yl)amino)-3,4-dihydroisoquinolin-2(1H)-yl)methanone] the value was 0.001 to 10 µM; for `CCS(=O)(=O)c1nc(C(=O)N2CCc3c(ncnc3Oc3ccc(C(F)(F)F)cc3)C2)c[nH]1` [O-0130, (2-(ethylsulfonyl)-1H-imidazol-4-yl)(4-(4-(trifluoromethyl)phenoxy)-5,8-dihydropyrido[3,4-d]pyrimidin-7(6H)-yl)methanone], 10 to 100 µM; for `CS(=O)(=O)c1nc(C(=O)N2CCc3ccc(Nc4ccc(C(F)(F)F)nc4)cc3C2)c[nH]1` [O-0016, (2-(methylsulfonyl)-1H-imidazol-4-yl)(7-((6-(trifluoromethyl)pyridin-3-yl)amino)-3,4-dihydroisoquinolin-2(1H)-yl)methanone], 10 to 100 µM.
On the same count and under the same terms, for `CS(=O)(=O)c1nc(C(=O)N2CCc3c(cccc3Nc3ccc(C(F)(F)F)nc3)C2)c[nH]1` [O-0009, (2-(methylsulfonyl)-1H-imidazol-4-yl)(5-((6-(trifluoromethyl)pyridin-3-yl)amino)-3,4-dihydroisoquinolin-2(1H)-yl)methanone] the value was 10 to 100 µM; for `CCCS(=O)(=O)c1nc(C(=O)N2CCc3c(cccc3Nc3ccc(C(F)(F)F)cc3)C2)c[nH]1` [O-0020, (2-(propylsulfonyl)-1H-imidazol-4-yl)(5-((4-(trifluoromethyl)phenyl)amino)-3,4-dihydroisoquinolin-2(1H)-yl)methanone], 0.001 to 10 µM; for `CS(=O)(=O)c1nc(C(=O)N2CCc3ccc(Nc4ccc(C(F)(F)F)cc4)cc3C2)c[nH]1` [O-0013, (2-(methylsulfonyl)-1H-imidazol-4-yl)(7-((4-(trifluoromethyl)phenyl)amino)-3,4-dihydroisoquinolin-2(1H)-yl)methanone], greater than 100 µM.
On to `CCS(=O)(=O)c1nc(C(=O)N2CCc3c(cccc3Oc3ccc(C(F)(F)F)cc3)C2)c[nH]1` [O-0011, (2-(ethylsulfonyl)-1H-imidazol-4-yl)(5-(4-(trifluoromethyl)phenoxy)-3,4-dihydroisoquinolin-2(1H)-yl)methanone], for which the IC50 (Homo sapiens, MSTO-211H, 24 h) was in the range of 10 to 100 µM.
The same measure, in the same setting: for `CS(=O)(=O)c1nc(C(=O)N2CCc3c(cccc3Nc3ccc(C(F)(F)F)cc3F)C2)c[nH]1` [O-0010, (5-((2-fluoro-4-(trifluoromethyl)phenyl)amino)-3,4-dihydroisoquinolin-2(1H)-yl)(2-(methylsulfonyl)-1H-imidazol-4-yl)methanone] the value was 0.001 to 10 µM.
As to `CS(=O)(=O)c1nc(C(=O)N2CCc3c(ncnc3Oc3ccc(C(F)(F)F)cc3)C2)c[nH]1` [O-0131, (2-(methylsulfonyl)-1H-imidazol-4-yl)(4-(4-(trifluoromethyl)phenoxy)-5,8-dihydropyrido[3,4-d]pyrimidin-7(6H)-yl)methanone], the 50% inhibitory concentration (IC50) lay within 10 to 100 µM.
With `CCCS(=O)(=O)c1nc(C(=O)N2CCc3c(cccc3Oc3ccc(C(F)(F)F)cc3)C2)c[nH]1` [O-0019, (2-(propylsulfonyl)-1H-imidazol-4-yl)(5-(4-(trifluoromethyl)phenoxy)-3,4-dihydroisoquinolin-2(1H)-yl)methanone], the IC50 (Homo sapiens, MSTO-211H, 24 h) fell in the range of 0.001 to 10 µM.
As to `CS(=O)(=O)c1nc(C(=O)N2CCc3c(ncnc3Oc3ccc(C(F)(F)F)c(F)c3)C2)c[nH]1` [O-0128, (4-(3-fluoro-4-(trifluoromethyl)phenoxy)-5,8-dihydropyrido[3,4-d]pyrimidin-7(6H)-yl)(2-(methylsulfonyl)-1H-imidazol-4-yl)methanone], the IC50 fell in the range of 10 to 100 µM.
Turning to `CS(=O)(=O)c1nc(C(=O)N2CCc3cc(Oc4ccc(C(F)(F)F)c(F)c4)cnc3C2)c[nH]1` [O-0077, (3-(3-fluoro-4-(trifluoromethyl)phenoxy)-5,8-dihydro-1,7-naphthyridin-7(6H)-yl)(2-(methylsulfonyl)-1H-imidazol-4-yl)methanone], the IC50 (Homo sapiens, MSTO-211H, 24 h) lay within 0.001 to 10 µM.
On to `CS(=O)(=O)c1nc(C(=O)N2CCc3c(ncnc3Oc3ccc(C(F)(F)F)cc3)C2)c[nH]1` [O-0119, (2-(methylsulfonyl)-1H-imidazol-4-yl)(4-(4-(trifluoromethyl)phenoxy)-5,8-dihydropyrido[3,4-d]pyrimidin-7(6H)-yl)methanone], for which the IC50 is 0.001 to 10 µM.
In the case of `CC(C)S(=O)(=O)c1nc(C(=O)N2CCc3c(cccc3Nc3ccc(C(F)(F)F)cc3)C2)c[nH]1` [O-0022, (2-(isopropylsulfonyl)-1H-imidazol-4-yl)(5-((4-(trifluoromethyl)phenyl)amino)-3,4-dihydroisoquinolin-2(1H)-yl)methanone], the IC50 (Homo sapiens, MSTO-211H, 24 h) is 0.001 to 10 µM.
Same read-out and setting: to `CCS(=O)(=O)c1nc(C(=O)N2CCc3c(cccc3Nc3ccc(C(F)(F)F)c(F)c3)C2)c[nH]1` [O-0025, (2-(ethylsulfonyl)-1H-imidazol-4-yl)(5-((3-fluoro-4-(trifluoromethyl)phenyl)amino)-3,4-dihydroisoquinolin-2(1H)-yl)methanone] belongs greater than 100 µM.
Take `CS(=O)(=O)c1nc(C(=O)N2CCc3c(ncnc3Oc3ccc(C(F)(F)F)cc3F)C2)c[nH]1` [O-0120, (4-(2-fluoro-4-(trifluoromethyl)phenoxy)-5,8-dihydropyrido[3,4-d]pyrimidin-7(6H)-yl)(2-(methylsulfonyl)-1H-imidazol-4-yl)methanone]: the IC50 (Homo sapiens, MSTO-211H, 24 h) fell in the range of 0.001 to 10 µM.
For the compound `CC(C)S(=O)(=O)c1nc(C(=O)N2CCc3c(cccc3Oc3ccc(C(F)(F)F)cc3)C2)c[nH]1` [O-0021, (2-(isopropylsulfonyl)-1H-imidazol-4-yl)(5-(4-(trifluoromethyl)phenoxy)-3,4-dihydroisoquinolin-2(1H)-yl)methanone], where the note is “Homo sapiens, MSTO-211H, 24 h”, the IC50 was 0.001 to 10 µM.
In the case of `CS(=O)(=O)c1nc(C(=O)N2CCc3ccc(Nc4ccc(C(F)(F)F)cc4F)cc3C2)c[nH]1` [O-0017, (7-((2-fluoro-4-(trifluoromethyl)phenyl)amino)-3,4-dihydroisoquinolin-2(1H)-yl)(2-(methylsulfonyl)-1H-imidazol-4-yl)methanone], where the note is “Homo sapiens, MSTO-211H, 24 h”, the concentration for half-maximal inhibition (IC50) lay in the range of 10 to 100 µM.
On the same count and under the same terms, for `Cn1cc(C(=O)N2CCc3c(cccc3Nc3ccc(C(F)(F)F)cn3)C2)nc1S(C)(=O)=O` [O-0005, (1-methyl-2-(methylsulfonyl)-1H-imidazol-4-yl)(5-((5-(trifluoromethyl)pyridin-2-yl)amino)-3,4-dihydroisoquinolin-2(1H)-yl)methanone] the value was 0.001 to 10 µM.
With `CS(=O)(=O)c1ncc(C(=O)N2CCc3ccc(Oc4ccc(C(F)(F)F)c(F)c4)cc3C2)[nH]1` [O-0123, (7-(3-fluoro-4-(trifluoromethyl)phenoxy)-3,4-dihydroisoquinolin-2(1H)-yl)(2-(methylsulfonyl)-1H-imidazol-5-yl)methanone], the IC50 (Homo sapiens, MSTO-211H, 24 h) fell in the range of 10 to 100 µM.
With `CS(=O)(=O)c1nc(C(=O)N2CCc3cc(Oc4ccc(C(F)(F)F)cc4F)ccc3C2)c[nH]1` [O-0075, (6-(2-fluoro-4-(trifluoromethyl)phenoxy)-3,4-dihydroisoquinolin-2(1H)-yl)(2-(methylsulfonyl)-1H-imidazol-4-yl)methanone], the IC50 (Homo sapiens, MSTO-211H, 24 h) was in the range of 0.001 to 10 µM.
The same measure, in the same setting: for `CS(=O)(=O)c1nc(C(=O)N2CCc3c(cccc3OC3CCC(F)(F)CC3)C2)c[nH]1` [O-0112, (5-((4,4-difluorocyclohexyl)oxy)-3,4-dihydroisoquinolin-2(1H)-yl)(2-(methylsulfonyl)-1H-imidazol-4-yl)methanone] the value was 0.001 to 10 µM.

(Values after US20250376458A1, “COMPOUNDS AND METHODS FOR YAP/TEAD MODULATION AND INDICATIONS THEREFOR” (OPNA BIO SA, priority 2023, published 2025).)
